Two compounds from patent US20230285411A1, “DRUG FORMULATION CONTAINING SEPETAPROST” (SANTEN PHARMACEUTICAL CO., LTD., priority 2020, published 2023) can be followed below.

Format in all cases: in vivo, cynomolgus monkey
Assay [1] concerns monkeys with an inadequate response to latanoprost. Put plainly: Test for effect of latanoprost on lowering intraocular pressure in monkeys with inadequate response to latanoprost. To be noted: for intraocular pressure change value: 20 μL/eye once. The procedure:
Latanoprost eye drop was administered to the monkeys with an inadequate response to latanoprost, and its effect on lowering the intraocular pressure at 10 and 12 hours after the administration was evaluated.
(§1) (Eye Drop) • Latanoprost eye drop: Xalatan® Eye Drops 0.005% (w/v) (Pfizer Japan Inc.)
(§2) (Test Animals) • Cynomolgus monkeys: 7 animals (sex: male) selected in “1. Selection of monkeys with inadequate response to latanoprost”
(§3) <Methods for Administration and Measurement> • (1) An intraocular pressure was measured immediately before administering the test eye drop and was defined as the pre-administration intraocular pressure value (0 hour). • (2) The test eye drop was administered once (20 μL/eye) to one eye (right eye) of the test animals using a PIPETMAN. The contralateral eye was untreated. • (3) An intraocular pressure was measured at 10 and 12 hours after the administration. The intraocular pressure was measured three times for each to calculate its average value. An intraocular pressure change value (mmHg) was calculated as the difference from the pre-administration intraocular pressure value (0 hour) at each measurement time point.

In assay [2] the test system is cynomolgus monkeys (monkeys with normal intraocular pressure), selected monkeys with an inadequate response to latanoprost. Put plainly: Selection of monkeys with inadequate response to latanoprost: intraocular pressure after single latanoprost eye drop. The conditions noted are these: for intraocular pressure change value: 0.005% (w/v) eye drop, 20 μL/eye once, 7 selected monkeys. The procedure: 1. Selection of monkeys with inadequate response to latanoprost Latanoprost eye drop was administered to cynomolgus monkeys (monkeys with normal intraocular pressure) and each individual animal was examined for responsiveness to latanoprost to select monkeys with an inadequate response to latanoprost.
as §1
(Test Animals) • Cynomolgus monkeys: 32 animals (Sex/male)
as §3, with “2, 4,” for “10”, “6” for “12”
The test was conducted as a crossover study. A physiological saline solution was administered as a test eye drop to a control group. Two series of administering the latanoprost eye drop were conducted and designated as a latanoprost (first time) group and a latanoprost (second time) group, respectively.

The subject of assay [3] is monkeys with an inadequate response to latanoprost. The assay is described as follows: Test for effect of sepetaprost on lowering intraocular pressure in monkeys with inadequate response to latanoprost. The conditions noted are these: for intraocular pressure lowering action: 10 and 12 hours after the administration, in words; for intraocular pressure lowering width / intraocular pressure change value: 0.002% (w/v) eye drop; for intraocular pressure change value: 20 μL/eye once. The protocol: Sepetaprost eye drop was administered to monkeys with an inadequate response to latanoprost, and its effect on lowering the intraocular pressure at 10 and 12 hours after the administration was evaluated.
(Eye Drop) • Sepetaprost eye drop: Sepetaprost was dissolved in a base, and then, a sepetaprost eye drop with a concentration of 0.002% (w/v) was prepared by using a commonly used method.
as §2
as §3, with “[…].” for “PIPETMAN.”
The test was conducted as a crossover study. The above-mentioned base was administered as a test eye drop to a control group. Two series of administering the sepetaprost eye drop were conducted and designated as a sepetaprost (first time) group and a sepetaprost (second time) group, respectively.

[4] abbreviates: 12 hours after administration, 0.005% (w/v) eye drop.
Where [5] appears, read: first time group, 10 hours after administration.
[6] abbreviates: first time group, 12 hours after administration.
The mark [7] stands for this setting: second time group, 10 hours after administration.
Where [8] appears, read: second time group, 12 hours after administration.

As to `CC(C)OC(=O)CCC/C=C\C[C@@H]1[C@@H](CC[C@@H](O)CCc2ccccc2)[C@H](O)C[C@@H]1O` [Latanoprost, latanoprost], the “intraocular pressure change value” in assay [1] (10 hours after administration, 0.005% (w/v) eye drop) is recorded as −0.5 mmHg; in assay [1] (setting [4]), −1.2 mmHg; in assay [2] (first time group, 2 hours after administration), 1.0 mmHg; in assay [2] (first time group, 4 hours after administration), −0.2 mmHg; in assay [2] (first time group, 6 hours after administration), −0.6 mmHg; in assay [2] (second time group, 2 hours after administration) it was 0.4 mmHg. The “intraocular pressure change value” in assay [2] (second time group, 4 hours after administration) is 0.0 mmHg; in assay [2] (second time group, 6 hours after administration) it was −0.1 mmHg. In addition, the “intraocular pressure lowering width” value in assay [1] (setting [4]) amounted to 1.2 mmHg. The “intraocular pressure lowering effect” value in assay [1] (up to 12 hours after the administration, in words) was “inadequate”. Moreover, the “change over time in the intraocular pressure” value in assay [2] (first time and second time groups, up to 6 hours after the administration, in words) is “little change over time”.
Regarding `CC(C)OC(=O)CCC[C@H]1CC[C@@H]2[C@@H](/C=C/[C@@H](O)COc3cc(F)ccc3F)[C@H](O)C[C@@H]2OC1` [Sepetaprost, 2-propanyl 4-{(3S,5aR,6R,7R,8aS)-6-[(1E,3R)-4-(2,5-difluorophenoxy)-3-hydroxy-1-buten-1-yl]-7-hydroxyoctahydro-2H-cyclopenta[b]oxepin-3-yl}butanoate], the results for the “intraocular pressure lowering action” value in assay [3] and in assay [3] (listed as sepetaprost eye drop) were “adequate” and “significant”, respectively. Moreover, the “intraocular pressure lowering width” value in assay [3] (setting [5]) worked out at 3.1 mmHg; in assay [3] (setting [6]), 3.3 mmHg; in assay [3] (setting [7]), 2.6 mmHg; in assay [3] (setting [8]), 3.4 mmHg. The “intraocular pressure change value” in assay [3] (setting [5]) is −3.1 mmHg; in assay [3] (setting [6]) it was −3.3 mmHg; in assay [3] (setting [7]) it was −2.6 mmHg; in assay [3] (setting [8]), −3.4 mmHg.
